Laboratory results published in US20100298252A1, “METHODS AND COMPOSITIONS FOR OPHTHALMIC TREATMENT OF FUNGAL AND BACTERIAL INFECTIONS” (priority 2004, published 2010).
“And” between values parts separate entries of the source, which are not always exact repeats. Identical values can stand only once.

Assays:
Format in all cases: cell-based
Staphylococcus aureus [1] = experiment: MIC and FIC index, microtiter checkerboard / broth dilution; details: Staph. aureus; antibiotic alone
Procedure: (§1) Agents and Chem. 210-217. (1967) and Sparks et al., Vet. Res. Comm. 18, 241-249 (1994), incorporated herein by reference in their entireties. […] Then 0.05 ml of an 18-hour old culture of a test organism, containing 10^6 colony-forming units (CFU)/ml, was added to each well. Controls for the culture and media were included in each plate. Plates were covered and incubated at 37° Celsius for 18-24 hours. […] To generate isobolograms, FICs of the two test solutions were plotted individually on the x-axis and y-axis to determine the effect of combining the two test solutions on bacterial growth. A line that curves away from, the zero point and the coordinates indicates antagonism. […] A numerical score or fractional inhibitory concentration (FIC) index was determined. The FIC index is equal to the sum of the values of FIC for the individual drugs: […] Am. Soc. Microbiol. Williams and Wilkins, Baltimore 1970), incorporated herein by reference in its entirety. […] Ps. aeruginosa, and Ent. faecalis.

Pseudomonas aeruginosa [2] = experiment: as above; details: Ps. aeruginosa; antibiotic alone
Procedure: as §1

Enterococcus faecalis [3] = experiment: as above; details: Ent. faecalis; antibiotic alone
Procedure: as §1

Staphylococcus aureus [4] = experiment: Antibiotic resistance profile by disc diffusion; set-up: key: R = resistant; I = intermediate; S = sensitive; details: disc diffusion on MHA
Procedure: (§2) The organisms of this study were isolated from human burn patients. They included strains of methicillin resistant Staphylococcus aureus, and vancomycin resistant strains of Pseudomonas aeruginosa and Enterococcus faecalis. The bacterial isolates were propagated in or on Brain Heart Infusion broth (BHI), Mueller-Hinton Broth (MHB), blood agar (BA), Mueller-Hinton agar (MHA), enterococcus agar (EA), or 2× nutrient agar (2×NA).
(§3) Antibiotic resistance profiles were determined by the disc diffusion method on MHA (5).

Pseudomonas aeruginosa [5] = experiment: Antibiotic resistance profile by disc diffusion; set-up: key: R = resistant; I = intermediate; S = sensitive; details: disc diffusion on MHA
Procedure: as §2, §3

Enterococcus faecalis [6] = experiment: Antibiotic resistance profile by disc diffusion; set-up: key: R = resistant; I = intermediate; S = sensitive; details: disc diffusion on MHA
Procedure: as §2, §3

Staphylococcus aureus [7] = experiment: Minimal Bactericidal Concentration, broth-dilution microtiter; details: Staph. aureus
Source text: (§4) 307 (pub: Am. Soc. Microbiol. Williams and Wilkins, Baltimore 1970), incorporated herein by reference in its entirety.

Pseudomonas aeruginosa [8] = experiment: as above; details: Ps. aeruginosa
Source text: as §4

Enterococcus faecalis [9] = experiment: as above
Source text: as §4

[10] = neomycin co-administered with EDTA, 50 mM Tris

Compound	MIC Individually Administered, antibiotic (Staphylococcus aureus [1])	MIC Individually Administered, antibiotic (Pseudomonas aeruginosa [2])	MIC Individually Administered, antibiotic (Enterococcus faecalis [3])	Antibiotic resistance profile (Staphylococcus aureus [4])	Antibiotic resistance profile (Pseudomonas aeruginosa [5])	Antibiotic resistance profile (Enterococcus faecalis [6])	Decrease of MBC value when EDTA and neomycin combined vs individually administered (Staphylococcus aureus [7])	MBC Individually Administered (Staphylococcus aureus [7]; neomycin alone, 50 mM Tris)	MBC Co-administered (Staphylococcus aureus [7]; [10])	Decrease of MBC value when EDTA and neomycin combined vs individually administered (Pseudomonas aeruginosa [8])	MBC Individually Administered (Pseudomonas aeruginosa [8]; neomycin alone, 50 mM Tris)	MBC Co-administered (Pseudomonas aeruginosa [8]; [10])	MBC Individually Administered (Enterococcus faecalis [9]; En. faecalis, neomycin alone, 50 mM Tris)	MBC Co-administered (Enterococcus faecalis [9]; En. faecalis, neomycin co-administered with EDTA, 50 mM Tris)	Decrease of MBC value when EDTA and neomycin combined vs individually administered (Enterococcus faecalis [9]; Ent. faecalis)
CC1(C)S[C@@H]2[C@H](NC(=O)[C@H](N)c3ccccc3)C(=O)N2[C@H]1C(=O)O [Ampicillin, ampicillin]	240 µg/mL	490 µg/mL	1 µg/mL	R^B	R	S	–	–	–	–	–	–	–	–	–
O=C(N[C@H](CO)[C@H](O)c1ccc([N+](=O)[O-])cc1)C(Cl)Cl [Chloramphenicol, chloramphenicol]	390 µg/mL	12500 µg/mL	400 µg/mL	I	R	R	–	–	–	–	–	–	–	–	–
CN(C)[C@@H]1C(O)=C(C(N)=O)C(=O)[C@@]2(O)C(O)=C3C(=O)c4c(O)cccc4[C@@](C)(O)[C@H]3[C@H](O)[C@@H]12 [Oxytetracycline, oxytetracycline]	0.1 µg/mL	3 µg/mL	50 µg/mL	–	–	–	–	–	–	–	–	–	–	–	–
NCC[C@H](O)C(=O)N[C@@H]1C[C@H](N)[C@@H](O[C@H]2O[C@H](CN)[C@@H](O)[C@H](O)[C@H]2O)[C@H](O)[C@H]1O[C@H]1O[C@H](CO)[C@@H](O)[C@H](N)[C@H]1O [Amikacin, amikacin]	120 µg/mL	1 µg/mL	2000 µg/mL	–	–	–	–	–	–	–	–	–	–	–	–
neomycin	3130 µg/mL	1000 µg/mL	3130 µg/mL	R	R	R	about 50% and 50%	3130 µg/mL	1560 µg/mL	99.2%	5000 µg/mL	40 µg/mL	25000 µg/mL	6250 µg/mL	75%
